For two compounds, GI50 and TGI results are on record in PubChem BioAssay (NCI).

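Cells were grown in 96-well plates and exposed to each compound for 48 hours at five concentrations; endpoints were interpolated linearly between bracketing concentrations, or set to the highest concentration if not reached. GI50 = concentration required for 50% inhibition of growth. TGI: concentration producing complete growth inhibition.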

Holding throughout (experiment): NCI-60 cell line screen, 48 h
Test [1] concerns EKVX NSCLC.
The test system of test [2] is HOP-92 NSCLC.
Test [3] has as its system HT29 colon.
Test [4] has as its system IGROV1 ovarian.
The subject of test [5] is KM12 colon.
The subject of test [6] is NCI-H23 lung.
Test [7] has as its system NCI-H522 lung.
Test [8] concerns OVCAR-3 ovarian.
For test [9], the system named is OVCAR-5 ovarian.
For test [10], the system named is U251 CNS.

`O=c1c(-c2nc3ccccc3[nH]2)cc2ccccc2n1Cc1cn(Cc2ccc(F)cc2)nn1`: the GI50 in test [1] was 0.799 µM; in test [2] it was 0.364 µM; in test [3], 0.041 µM; in [4], 0.221 µM; in test [5], 0.143 µM; in test [6], 0.457 µM. Besides, the GI50 in test [7] was 0.0957 µM; in [8] it was 0.15 µM; in test [9], 0.287 µM; in [10], 0.161 µM. The TGI is > 100 µM in test [1]; 18.2 µM in [2]; 96.9 µM in test [3]; > 100 µM in test [4]; > 41.5 µM in test [5]; 19 µM in [6]. Also, the figures for the TGI in [8], in test [9] and in test [10] were 0.911 µM, 7.84 µM and 12.4 µM, respectively.
As to `CC(=O)c1ccc(-c2ccc(C(C)=O)s2)s1`, the TGI in test [1], in [2], in test [3], in [4], in test [5] and in test [6] was > 100 µM throughout. For the same compound, the TGI in [7], in test [8], in test [9] and in test [10] was > 100 µM throughout.
